Assays:
Format in all cases: physicochemical
[1] = Change of absorbance at maximum absorption wavelength after reaction with reactive oxygen species (Example 2); conditions: 10 μM dye in 0.1 M phosphate buffer; all reactive oxygen species (hydroxyl radical, peroxynitrite, hypochlorite ion, superoxide anion); FIG. 2
Method: (§1) Cy5, Cy7, Compound 2 (cyanine compound constituting the second cyanine compound residue) and Compound 3 (cyanine compound constituting the first cyanine compound residue), the latter two of which were obtained above, were reacted with hydroxyl radical, peroxynitrite, hypochlorite ion, and superoxide anion, and change of absorbance at the maximum absorption wavelength was measured. For the measurement, 10 μM solutions of Cy5, Cy7, Compound 2, and Compound 3 in 0.1 M phosphate buffer were prepared, and the measurement was performed with the prepared solutions under the following conditions.
Hydrogen peroxide and iron(II) perchlorate were added to final concentrations of 1 mM and 50 μM, respectively.
Peroxynitrite was added to a final concentration of 10 μM.
Hypochlorite ions were added to a final concentration of 10 μM.
(§2) Xanthine oxidase and xanthine were added to final concentrations of 4 mU and 33 μM, respectively.
(§3) In the graph, the test results for those reactive oxygen species are indicated in the order of Cy5, Compound 2, Cy7, and Compound 3 from the left.

[2] = Oxidation potential (Ep) of cyanine dyes, saturated calomel electrode as reference; conditions: saturated calomel electrode (SCE) as reference electrode
[3] = Change of absorbance at maximum absorption wavelength after reaction with superoxide anion (Example 2); conditions: 10 μM dye in 0.1 M phosphate buffer; xanthine oxidase 4 mU, xanthine 33 μM; FIG. 2
Method: as §1, §2, §3

| Ep [2] | Decrease of absorbance at maximum absorption wavelength for superoxide anion [3] | Compound | Decrease of absorbance at maximum absorption wavelength upon addition of reactive oxygen species [1] |
| --- | --- | --- | --- |
| 0.333 V vs SCE |  | CN1/C(=C/C=C2\CCCC(/C=C/C3=[N+](C)c4ccccc4C3(C)C)=C2SCCC(=O)O)C(C)(C)c2ccccc21 [Compound 3] | larger decrease of absorbance than did Cy7 |
| 0.658 V vs SCE | no decrease of absorbance | CC1(C)C(/C=C/C=C/C=C2/N(CCC(=O)O)c3ccc(S(=O)(=O)O)cc3C2(C)C)=[N+](CCC(=O)O)c2ccc(S(=O)(=O)O)cc21 [Compound 2] | the smallest decrease of absorbance |
| 0.476 V vs SCE |  | CCN1C(=CC=CC=CC=CC2=[N+](CCCCCC(=O)O)c3ccc(S(=O)(=O)O)cc3C2(C)C)C(C)(C)c2cc(S(=O)(=O)[O-])ccc21 [Cy7, reference compound] | larger decrease of absorbance than did Cy5 |
| 0.516 V vs SCE |  | Cy5 [reference compound] |  |
